{"source": "patent US20130331353A1", "about": "“CELL-PERMEABLE VARIANTS OF TREHALOSE AND METHODS FOR THE PROTECTION OF LIVING CELLS” (UNION COLLEGE, priority 2012, published 2013)", "test_system": "Jurkat cells", "assay": "Survival of Jurkat cells after cryopreservation (Trypan blue staining, automated cell counter)", "format": "cell-based, human", "conditions": "Jurkat cells incubated 24 hours (50-200 μM Compound 2, with or without 200 mM Tre), slowly frozen at −80° C., thawed quickly; FIG. 2", "experimental": "Fully acetylated Tre (Compound 2, FIG. 1) has been synthesized, and incubated with Jurkat cells, a human T-cell line.\nIn accordance with a method of the present invention, mammalian cells are incubated with a solution containing cell-permeable variants of Tre. Preferably, the incubation time is at least 24 hours, more preferably, 24 to 96 hours, and most preferably about 48 hours. The cells are then frozen, preferably to about −80° C. or colder and thawed. Suitable freezing techniques include freezing the cells slowly, using for example a cryo 1° C. freezing container (“Mr. Frosty”), and freezing the cells quickly, for example, by plunging them into liquid nitrogen. Preferably, the frozen cells are thawed quickly, but they may also be thawed slowly. The % cell survival is measured, preferably using Trypan blue staining and an automated cell counter. […]\nJurkat cells were incubated for 24 hours with each of the following solutions: 0 mM Tre, 200 mM Tre, 50 μM Compound 2, 100 μM Compound 2, 200 μM Compound 2, 50 μM Compound 2+200 mM Tre, 100 μM Compound 2+200 mM Tre, and 200 μM Compound 2+200 mM Tre. The cells were then slowly frozen at −80° C. using a cryo 1° C. freezing container (“Mr. Frosty”) and thawed quickly. % cell survival was measured using Trypan blue staining and automated cell counter."}
{"molecule": "CC(=O)OCC1OC(OC2OC(COC(C)=O)C(OC(C)=O)C(OC(C)=O)C2OC(C)=O)C(OC(C)=O)C(OC(C)=O)C1OC(C)=O", "note": "(stereo not shown) [Compound 2, fully acetylated trehalose]", "values": [{"measurement": "survival after freezing and thawing", "value": "improved survival"}]}
